Data published in US9346761B2, “Arginine methyltransferase inhibitors and uses thereof” (Epizyme, Inc., priority 2013, dated 2016).
Where a name gives a salt, the structure may show the parent alone.

Assays:
Full-length human PRMT6 = target: T1, Full-length human PRMT6 (Homo sapiens, UniProt Q96LA8); experiment: PRMT6 biochemical assay (3H-SAM Flashplate, peptide substrate)
T1 construct: Flag-PRMT6-His was eluted with 200 ug/ml FLAG peptide in the same buffer; made in house; host or cells: HEK 293F cells (BacMam virus, pFastBacMam)
T1 sequence (Q96LA8 with tags, fused parts or gaps): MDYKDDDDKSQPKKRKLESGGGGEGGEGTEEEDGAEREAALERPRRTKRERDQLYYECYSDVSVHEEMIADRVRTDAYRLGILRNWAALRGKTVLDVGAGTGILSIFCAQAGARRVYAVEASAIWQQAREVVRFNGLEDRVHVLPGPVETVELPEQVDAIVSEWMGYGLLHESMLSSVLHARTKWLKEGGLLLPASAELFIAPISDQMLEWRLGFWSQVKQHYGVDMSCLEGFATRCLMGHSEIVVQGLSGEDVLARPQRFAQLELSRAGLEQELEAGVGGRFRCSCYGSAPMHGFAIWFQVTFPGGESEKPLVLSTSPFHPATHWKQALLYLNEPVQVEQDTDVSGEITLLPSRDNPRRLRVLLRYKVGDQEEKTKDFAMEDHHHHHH
In short: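 Read-out is 3H-methylated histone H4 (36-50) peptide bound to streptavidin Flashplates after a cold-SAM stop. Baculovirus-expressed Flag-PRMT6-His met compound for 30 min at room temperature before SAM and peptide; Bicine pH 7.6 buffer. IC50 fitted to % inhibition normalized to SAH (min) and DMSO (max).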

Full-length human PRMT8 = target: T2, Full-length human PRMT8 (Homo sapiens, UniProt Q9NR22); experiment: PRMT8 biochemical assay (3H-SAM Flashplate, peptide substrate)
T2 construct: Full-length human PRMT8 (NM_019854.4) isoform 1 transcript clone; made in house
T2 sequence (Q9NR22 whole entry, canonical isoform): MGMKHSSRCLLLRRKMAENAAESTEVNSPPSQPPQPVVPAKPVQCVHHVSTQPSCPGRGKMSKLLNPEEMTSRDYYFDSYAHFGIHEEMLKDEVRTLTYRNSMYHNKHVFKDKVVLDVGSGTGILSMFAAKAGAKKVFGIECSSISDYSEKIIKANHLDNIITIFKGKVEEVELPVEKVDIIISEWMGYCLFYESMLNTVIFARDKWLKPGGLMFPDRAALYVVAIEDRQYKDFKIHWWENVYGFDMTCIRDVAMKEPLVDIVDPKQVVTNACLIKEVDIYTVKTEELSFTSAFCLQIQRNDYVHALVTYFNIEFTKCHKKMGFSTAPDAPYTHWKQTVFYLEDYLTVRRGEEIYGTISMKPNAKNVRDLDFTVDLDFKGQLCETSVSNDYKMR
From the text: General Materials. S-adenosylmethionine (SAM), S-adenosylhomocysteine (SAH), bicine, Tween20, dimethylsulfoxide (DMSO), bovine skin gelatin (BSG), isopropyl-β-D-thiogalactopyranoside (IPTG), and Tris(2-carboxyethyl)phosphine hydrochloride solution (TCEP) were purchased from Sigma-Aldrich at the highest level of purity possible. ^3H-SAM was purchase from American Radiolabeled Chemicals with a specific activity of 80 Ci/mmol. 384-well streptavidin Flashplates were purchased from PerkinElmer.
Substrates. Peptide representative of human histone H4 residues 31-45 was synthesized with an N-terminal linker-affinity tag motif and a C-terminal amide cap by 21st Century Biochemicals.
Protein Expression. E. coli (BL21(DE3) Gold, Stratagene) made competent by the CaCl2 method were transformed with the PRMT8 construct and ampicillin selection. Protein over-expression was accomplished by growing the PRMT8 expressing E. coli clone and inducing expression with 0.3 mM IPTG at 16° C. The culture was grown for 12 hours, harvested by centrifugation, and stored at −80° C. for purification.
Protein Purification. […] GST-tagged PRMT8 was eluted with 50 mM Tris, 2 mM glutathione, pH 7.8. Pooled fractions were cleaved by thrombin (10 U) and dialysed in buffer A. GST was removed by reloading the cleaved protein sample onto glutathione sepharose column and PRMT8 was collected in the flow-through fractions. PRMT8 was purified further by ceramic hydroxyapatite chromatography. The column was washed with 50 mM phosphate buffer, 100 mM NaCl, 5% glycerol, 5 mM β-mercaptoethanol, pH 7.8 and PRMT8 was eluted by 100 mM phosphate in the same buffer. Protein was concentrated and buffer was exchanged to 50 mM Tris, 300 mM NaCl, 10% glycerol, 5 mM β-mercaptoethanol, pH 7.8 by ultrafiltration.
General Procedure for PRMT8 Enzyme Assays on Peptide Substrates. The assays were all performed in a buffer consisting of 20 mM Bicine (pH=7.6), 1 mM TCEP, 0.005% BSG, and 0.002% Tween 20, prepared on the day of use. […] DMSO (1 ul) was added to Columns 11, 12, 23, 24, rows A-H for the maximum signal control and 1 ul of SAH, a known product and inhibitor of PRMT8, was added to columns 11, 12, 23, 24, rows I-P for the minimum signal control. A cocktail (40 ul) containing the PRMT8 enzyme was added by Multidrop Combi (Thermo-Fisher). The compounds were allowed to incubate with PRMT8 for 30 min at room temperature, then a cocktail (10 ul) containing ^3H-SAM and peptide was added to initiate the reaction (final volume=51 ul). […] The assays were stopped by the addition of non-radiolabeled SAM (10 ul) to a final concentration of 400 uM, which dilutes the ^3H-SAM to a level where its incorporation into the peptide substrate is no longer detectable. 50 ul of the reaction in the 384-well polypropylene plate was then transferred to a 384-well Flashplate and the biotinylated peptides were allowed to bind to the streptavidin surface for at least 1 hour before being washed once with 0.1% Tween20 in a Biotek ELx405 plate washer. The plates were then read in a PerkinElmer TopCount plate reader to measure the quantity of ^3H-labeled peptide bound to the Flashplate surface, measured as disintegrations per minute (dpm) or alternatively, referred to as counts per minute (cpm).
Where dpm=disintegrations per minute, cmpd=signal in assay well, and min and max are the respective minimum and maximum signal controls.
Where top and bottom are the normally allowed to float, but may be fixed at 100 or 0 respectively in a 3-parameter fit. The Hill Coefficient normally allowed to float but may also be fixed at 1 in a 3-parameter fit. Y is the % inhibition and X is the compound concentration.

| Compound | IC50 (Full-length human PRMT6) | IC50 (Full-length human PRMT8) |
| --- | --- | --- |
| C=CCn1cc(CN(C)CCNC)c(-c2ccc(OC(C)C)cc2)n1 [Compound 218] | 101 to 1000 nM |  |
| CNCCN(C)Cc1cn(C)nc1-c1ccc(OC(C)C)cc1 [Compound 243, N1-((3-(4-isopropoxyphenyl)-1-methyl-1H-pyrazol-4-yl)methyl)-N1,N2-dimethylethane-1,2-diamine] | 101 to 1000 nM |  |
| CNCCN(C)Cc1cn(CCCC(O)CO)nc1-c1ccc(F)cc1 (centres unmarked) [Compound 30] | 101 to 1000 nM | > 10000 nM |
| CC(C)Oc1cc(-c2n[nH]cc2CN(C)CCN)ccc1F [Compound 188] | < 100 nM | 1010 to 3000 nM |
| CNCCN(C)Cc1cn(CC(N)=O)nc1-c1ccc(OC(C)C)cc1 [Compound 251] | 1010 to 3000 nM |  |
| CN(CCN1CCC1)Cc1c[nH]nc1-c1ccc(C#N)cc1 [Compound 185] | 101 to 1000 nM | 3010 to 10000 nM |
| CN(CCN)Cc1n[nH]cc1-c1ccc(Oc2ccccc2)cc1 [Compound 203] | < 100 nM | 101 to 1000 nM |
| C=CCn1ncc(CN(C)CCNC)c1-c1ccc(OC(C)C)cc1 [Compound 219] | < 100 nM |  |
| CNCCN(C)Cc1cn(C2CCCCC2)nc1-c1ccc(OC(C)C)cc1 [Compound 256] | 101 to 1000 nM | 1010 to 3000 nM |
| C=CC(=O)Nc1cccc(-c2[nH]ncc2CN(C)CCNC)c1 [Compound 258] | 101 to 1000 nM |  |
| CNCCN(C)Cc1c[nH]nc1-c1ccccc1C(F)(F)F [Compound 38] | 101 to 1000 nM | 3010 to 10000 nM |
| CNCCN(C)Cc1cnn(C2CC2)c1-c1ccc(F)cc1 [Compound 14] | < 100 nM | 1010 to 3000 nM |
| CNCCN(C)Cc1cn(C2CC2)nc1-c1ccc(F)cc1 [Compound 13] | 101 to 1000 nM | > 10000 nM |
| CC(C)CC(=O)N1CCN(c2ccc(-c3n[nH]cc3CN(C)CCN)cc2)CC1 [Compound 180] | < 100 nM | 3010 to 10000 nM |
| CC(C)Oc1ccc(-c2c[nH]nc2CN(C)CCN)cc1Cl [Compound 211] | < 100 nM | 101 to 1000 nM |
| CNCCN(C)Cc1c[nH]nc1-c1ccc(OCCCOC)c(Cl)c1 [Compound 228] | < 100 nM | 101 to 1000 nM |
| CNCCN(C)Cc1cn[nH]c1-c1cc(F)cc(F)c1 [Compound 18] | < 100 nM | 101 to 1000 nM |
| CNCCN(C)Cc1c[nH]nc1-c1ccc(Oc2ccccc2)c(C#N)c1 [Compound 221] | < 100 nM | 101 to 1000 nM |
| CNCCN(C)Cc1c[nH]nc1-c1cccc([N+](=O)[O-])c1 [Compound 21] | < 100 nM | 101 to 1000 nM |
| CNCCN(C)Cc1cn(CCOC)nc1-c1ccc(OC(C)C)cc1 [Compound 253, N1-((3-(4-isopropoxyphenyl)-1-(2-methoxyethyl)-1H-pyrazol-4-yl)methyl)-N1,N2-dimethylethane-1,2-diamine hydrochloride] | 101 to 1000 nM |  |
| CNCCN(C)Cc1c[nH]nc1-c1cccc(OC)c1 [Compound 24] | < 100 nM | 101 to 1000 nM |
| CN(CCN)Cc1c[nH]nc1-c1ccc2c(c1)OCC(=O)N2C [Compound 192] | < 100 nM | 1010 to 3000 nM |
| CNCCN(C)Cc1cnn(CCCC(O)CO)c1-c1ccc(F)cc1 (centres unmarked) [Compound 31] | 101 to 1000 nM | 3010 to 10000 nM |
| CNCCN(C)Cc1c[nH]nc1-c1ccc(O)cc1 [Compound 27] | < 100 nM | 101 to 1000 nM |
| CNCCN(C)Cc1c[nH]nc1-c1ccc(N)cc1 [Compound 33] | < 100 nM | 1010 to 3000 nM |
| CC(C)CN1C(=O)COc2ccc(-c3n[nH]cc3CN(C)CCN)cc21 [Compound 191] | 101 to 1000 nM | 3010 to 10000 nM |

| Compound | IC50 (Full-length human PRMT6) | IC50 (Full-length human PRMT8) |
| --- | --- | --- |
| CNCCN(C)Cc1c[nH]nc1-c1ccccc1OC [Compound 23] | 101 to 1000 nM | 3010 to 10000 nM |
| CNCCN(C)Cc1n[nH]cc1-c1ccc(OC(C)C)c(Cl)c1 [Compound 212] | < 100 nM | < 100 nM |
| CNCCN(C)Cc1cn(C)nc1-c1ccc(OC(C)C)c(Cl)c1 [Compound 206] | < 100 nM | 101 to 1000 nM |
| CN(CCN)Cc1c[nH]nc1-c1ccc(Oc2ccc(F)cc2)cc1 [Compound 225, N^1-((3-(4-(4-fluorophenoxy)phenyl)-1H-pyrazol-4-yl)methyl)-N^1-methylethane-1,2-diamine] | < 100 nM | < 100 nM |
| CNCCN(C)Cc1c[nH]nc1-c1ccccc1OC(F)(F)F [Compound 40] | 101 to 1000 nM | 3010 to 10000 nM |
| CN(CCN)Cc1c[nH]nc1-c1ccc(Oc2ccccc2)c(F)c1 [Compound 224, N^1-((3-(3-fluoro-4-phenoxyphenyl)-1H-pyrazol-4-yl)methyl)-N^1-methylethane-1,2-diamine] | < 100 nM | 101 to 1000 nM |
| CNCCN(C)Cc1cn(C2CCOC2)nc1-c1ccc(OC(C)C)cc1 (centres unmarked) [Compound 215] | 101 to 1000 nM |  |
| CN(CCN)Cc1c[nH]nc1-c1ccc(OCCCO)cc1 [Compound 195] | < 100 nM | 101 to 1000 nM |
| CNCCN(C)Cc1c[nH]nc1-c1cccc(C#N)c1 [Compound 22] | < 100 nM | 1010 to 3000 nM |
| Cc1cc(-c2n[nH]cc2CN(C)CCN)cc(C)c1OC(C)C [Compound 199, N^1-((3-(4-isopropoxy-3,5-dimethylphenyl)-1H-pyrazol-4-yl)methyl)-N^1-methylethane-1,2-diamine] | 101 to 1000 nM | 101 to 1000 nM |
| CN(CCN)Cc1c[nH]nc1-c1ccc(Oc2ccccc2)c(C#N)c1 [Compound 202] | < 100 nM | 101 to 1000 nM |
| CNCCN(C)Cc1cn[nH]c1-c1ccc(C#N)cc1 [Compound 17] | < 100 nM | < 100 nM |
| CN(CCN)Cc1c[nH]nc1-c1ccc(OCCO)cc1 [Compound 194] | < 100 nM | 101 to 1000 nM |
| CN(CCN)Cc1c[nH]nc1-c1ccc(Oc2ccccc2)c(C(=O)N(C)C)c1 [Compound 226] | < 100 nM | 3010 to 10000 nM |
| CNC(=O)c1cc(-c2n[nH]cc2CN(C)CCN)ccc1Oc1ccccc1 [Compound 227] | < 100 nM | 101 to 1000 nM |
| CNCCN(C)Cc1cn(Cc2ccccn2)nc1-c1ccc(OC(C)C)cc1 [Compound 247] | 101 to 1000 nM |  |
| C=C(C)C(=O)Nc1cccc(-c2[nH]ncc2CN(C)CCNC)c1 [Compound 257] | 101 to 1000 nM |  |
| CCn1ncc(CN(C)CCNC)c1-c1ccc(OC(C)C)cc1 [Compound 252] | 101 to 1000 nM |  |
| CNCCN(C)Cc1cn(CC(=O)OC)nc1-c1ccc(OC(C)C)cc1 [Compound 248] | 101 to 1000 nM |  |
| CNCCN(C)Cc1cn(Cc2ccccc2)nc1-c1ccc(OC(C)C)cc1 [Compound 217] | < 100 nM |  |
| CNCCN(C)Cc1cn(C2CCC2)nc1-c1ccc(OC(C)C)cc1 [Compound 254, N1-((1-cyclobutyl-3-(4-isopropoxyphenyl)-1H-pyrazol-4-yl)methyl)-N1,N2-dimethylethane-1,2-diamine hydrochloride] | 101 to 1000 nM |  |
| CNCCN(C)Cc1cnn(C2CCOC2)c1-c1ccc(OC(C)C)cc1 (centres unmarked) [Compound 216] | < 100 nM |  |
| CCn1cc(CN(C)CCNC)c(-c2ccc(OC(C)C)cc2)n1 [Compound 213] | < 100 nM |  |
| CNCCN(C)Cc1cnn(C2CCCC2)c1-c1ccc(OC(C)C)cc1 [Compound 255] | < 100 nM |  |
| CNCCN(C)Cc1cn(Cc2cccnc2)nc1-c1ccc(OC(C)C)cc1 [Compound 246] | 101 to 1000 nM |  |
| CNCCN(C)Cc1cn(C2CCCC2)nc1-c1ccc(OC(C)C)cc1 [Compound 214] | 101 to 1000 nM |  |
